Data from patent publication US20240287138A1, “CYCLIC PEPTIDES FOR INHIBITING TNF RECEPTOR 1 ACTIVITY” (Merck Sharp & Dohme LLC, priority 2023, published 2024).
Numbered stars: 1 amine (or outer) side, 2 acyl side, 3 side chain; on linkers, the order of the positions; unused ones are H or OH. Bridge positions count the residues as written; N and C are the ends. Square brackets hold non-standard residues; d marks the D form. Peptide text beside a SMILES is read from it. Trp(βS-Me,7-OMe) = COc1cccc2c([C@H](C)[C@H](N)C(=O)O)c[nH]c12; Acbc(cis-1,3) = O=C([C@H]1C[C@@H](N[*:1])C1)[*:2]; Trp(7-Cl) = N[C@@H](Cc1c[nH]c2c(Cl)cccc12)C(=O)O; Ala(pyrimidin-5-yl) = N[C@@H](Cc1cncnc1)C(=O)O; Phe(4-COOH) = N[C@@H](Cc1ccc(C(=O)O)cc1)C(=O)O; Trp(7-aza) = N[C@@H](Cc1c[nH]c2ncccc12)C(=O)O; X41 = O=C([C@@H]1C[C@H](O)CCN1[*:1])[*:2]; Pip(4-aza) = O=C(O)[C@@H]1CNCCN1; 4Pal = N[C@@H](Cc1ccncc1)C(=O)O; NMeE = CN[C@@H](CCC(=O)O)C(=O)O; d(αMeP) = C[C@]1(C(=O)O)CCCN1; αMeS = C[C@](N)(CO)C(=O)O; Nle = CCCC[C@H](N)C(=O)O; Sar = CNCC(=O)O

These molecules were tested against T1, TNFα-induced NF-κB signal transduction pathway (TNFR1 signaling) in THP-1 cells (Homo sapiens, UniProt P19438) (assay: THP-1 Lucia NF-κB reporter cell assay, inhibition of TNFα-induced NF-κB signaling). Conditions: THP-1 NF-κB Lucia reporter cells, 10 ng/mL TNFα, 16-18 h, secreted luciferase; read-out: THP-1 IC50.
T1 sequence (P19438 30-455): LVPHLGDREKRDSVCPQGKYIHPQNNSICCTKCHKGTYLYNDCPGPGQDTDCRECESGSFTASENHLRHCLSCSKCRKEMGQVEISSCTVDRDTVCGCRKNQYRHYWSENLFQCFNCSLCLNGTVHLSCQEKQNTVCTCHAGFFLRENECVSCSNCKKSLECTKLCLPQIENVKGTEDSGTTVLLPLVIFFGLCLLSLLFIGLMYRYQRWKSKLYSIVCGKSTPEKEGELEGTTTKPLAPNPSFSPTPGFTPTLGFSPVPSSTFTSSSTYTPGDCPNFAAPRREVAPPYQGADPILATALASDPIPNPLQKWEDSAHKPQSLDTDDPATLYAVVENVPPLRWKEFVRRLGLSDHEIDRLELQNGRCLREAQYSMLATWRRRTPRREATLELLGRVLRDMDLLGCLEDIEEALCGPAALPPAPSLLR
Assay type: cell-based
Protocol: C. Procedure for THP-1 Lucia NF-κB cells
The inhibition of TNFα-induced NF-κB signal transduction pathways was evaluated in THP-1 cells. THP-1 cells harboring NF-κB-inducible Lucia™ reporter gene (InvivoGen, cat. #thp1-nfkb) designed for monitoring NF-κB signal transduction pathway was employed to assess the inhibitory effect macrocyclic peptides on TNFR1 signaling. The cells were cultured in media containing RPMI 1640, 2 mM L-glutamine, 25 mM HEPES, 10% heat-inactivated fetal bovine serum with appropriate selection antibiotics. Assays were performed in media that was devoid of selection antibiotics. For profiling, 125 nL of peptides in DMSO (10 mM) were dispensed into Falcon® 384-well Optilux white/clear flat bottom TC-treated microtest microplate (Corning, cat. #353963) using Echo® 555. […] A suspension of 1 million cells/mL was dispensed at 20 μL/well in a 384-well plate to a density of 20,000 cells/well and pre-incubated with peptides at 37° C. for 1 h. Subsequently, 5 μL of TNF containing media (recombinant human TNFα; R&D Systems USA, cat. #210-TA-005/CF) or TNF-free media (for controls) was added to the wells. The final concentration of TNFα in the assay in 10 ng/mL. After o.n. incubation at 37° C. (16-18 h), 5 μL of supernatant was aspirated and transferred to a 384-well microplate (PerkinElmer, cat. #6007680) for measurement of secreted luciferase activity with 25 μL of QUANTI-Luc™ luminescence assay reagent (InvivoGen, cat. #rep-qlc1) in each well. The luminescence was measured in EnVision® Multimode Plate Reader (PerkinElmer). Dose response curves were analyzed using a 4-parameter logistic model to calculate IC50 values, reported in Table 2, using TIBCO® Spotfire® software employing appropriate Minimum and Maximum controls.

Row | SMILES | IC50
1 | CCCC[C@@H]1NC(=O)CSC[C@@H](C(N)=O)NC(=O)[C@H]([C@@H](C)c2c[nH]c3c(OC)cccc23)NC(=O)CN(C)C(=O)[C@H](Cc2ccc(O)cc2)NC(=O)[C@H](Cc2ccc(C(=O)O)cc2)NC(=O)[C@](C)(CO)NC(=O)[C@H](Cc2c[nH]c3c(Cl)cccc23)NC(=O)[C@H](Cc2ccncc2)NC(=O)[C@H](CC(N)=O)NC(=O)[C@H](CCC(=O)O)N(C)C(=O)[C@H](Cc2c[nH]c3ncccc23)NC(=O)[C@@H]2CNCCN2C(=O)[C@H](Cc2cncnc2)NC1=O [SEQ ID NO. 65] ({CH2CO}-[Nle][Ala(pyrimidin-5-yl)][Pip(4-aza)][Trp(7-aza)][NMeE]N[4Pal][Trp(7-Cl)][αMeS][Phe(4-COOH)]Y[Sar][Trp(βS-Me,7-OMe)]C-NH2; thioether N-14) | 4 nM
2 | CCCC[C@@H]1NC(=O)[C@H]2C[C@H](C2)NC(=O)[C@H]([C@@H](C)c2c[nH]c3c(OC)cccc23)NC(=O)CN(C)C(=O)[C@H](Cc2ccc(O)cc2)NC(=O)[C@H](Cc2ccc(C(=O)O)cc2)NC(=O)[C@](C)(CO)NC(=O)[C@H](Cc2c[nH]c3c(Cl)cccc23)NC(=O)[C@H](Cc2ccncc2)NC(=O)[C@H](CC(N)=O)NC(=O)[C@H](CCC(=O)O)N(C)C(=O)[C@H](Cc2c[nH]c3ccccc23)NC(=O)[C@@H]2CNCCN2C(=O)[C@H](Cc2ccncc2)NC1=O [SEQ ID NO. 69] (cyclo([4Pal][Trp(7-Cl)][αMeS][Phe(4-COOH)]Y[Sar][Trp(βS-Me,7-OMe)][Acbc(cis-1,3)][Nle][4Pal][Pip(4-aza)]W[NMeE]N)) | 1.6 nM
3 | CCCC[C@@H]1NC(=O)CSC[C@@H](C(N)=O)NC(=O)[C@H]([C@@H](C)c2c[nH]c3c(OC)cccc23)NC(=O)CN(C)C(=O)[C@H](Cc2ccc(O)cc2)NC(=O)[C@H](Cc2ccc(C(=O)O)cc2)NC(=O)[C@](C)(CO)NC(=O)[C@H](Cc2c[nH]c3c(Cl)cccc23)NC(=O)[C@H](Cc2ccncc2)NC(=O)[C@H](CC(N)=O)NC(=O)[C@H](CCC(=O)O)N(C)C(=O)[C@H](Cc2c[nH]c3ccccc23)NC(=O)[C@@H]2C[C@H](O)CCN2C(=O)[C@H](Cc2ccncc2)NC1=O [SEQ ID NO. 71] ({CH2CO}-[Nle][4Pal][X41]W[NMeE]N[4Pal][Trp(7-Cl)][αMeS][Phe(4-COOH)]Y[Sar][Trp(βS-Me,7-OMe)]C-NH2; thioether N-14) | 2.8 nM
4 | CCCC[C@@H]1NC(=O)CSC[C@@H](C(N)=O)NC(=O)[C@H]([C@@H](C)c2c[nH]c3c(OC)cccc23)NC(=O)CN(C)C(=O)[C@H](Cc2ccc(O)cc2)NC(=O)[C@H](Cc2ccc(C(=O)O)cc2)NC(=O)[C@](C)(CO)NC(=O)[C@H](Cc2c[nH]c3c(Cl)cccc23)NC(=O)[C@H](Cc2ccncc2)NC(=O)[C@H](CCC(=O)N(C)C)NC(=O)[C@H](CCC(=O)O)N(C)C(=O)[C@H](Cc2c[nH]c3ccccc23)NC(=O)[C@@H]2CNCCN2C(=O)[C@H](Cc2ccncc2)NC1=O [SEQ ID NO. 75] ({CH2CO}-[Nle][4Pal][Pip(4-aza)]W[NMeE]E(NMe2)[4Pal][Trp(7-Cl)][αMeS][Phe(4-COOH)]Y[Sar][Trp(βS-Me,7-OMe)]C-NH2; thioether N-14) | 6.1 nM
5 | CCCC[C@@H]1NC(=O)CSC[C@@H](C(N)=O)NC(=O)[C@H]([C@@H](C)c2c[nH]c3c(OC)cccc23)NC(=O)CN(C)C(=O)[C@H](Cc2ccc(O)cc2)NC(=O)[C@H](Cc2ccc(C(=O)O)cc2)NC(=O)[C@](C)(CO)NC(=O)[C@H](Cc2c[nH]c3c(Cl)cccc23)NC(=O)[C@H](Cc2ccncc2)NC(=O)[C@H](CC(N)=O)NC(=O)[C@@]2(C)CCCN2C(=O)[C@H](Cc2c[nH]c3ccccc23)NC(=O)[C@@H]2CNCCN2C(=O)[C@H](Cc2ccncc2)NC1=O [SEQ ID NO. 76] ({CH2CO}-[Nle][4Pal][Pip(4-aza)]W[d(αMeP)]N[4Pal][Trp(7-Cl)][αMeS][Phe(4-COOH)]Y[Sar][Trp(βS-Me,7-OMe)]C-NH2; thioether N-14) | 4.7 nM
